Results as given in PMC12345137 (mBio, 2025).
Several values for one entry are separate records, joined by “and”; a condition that tells them apart may be missing. Equal entries are not always repeated. Where two headings read alike, the source gives them in different places. Positions of bridges follow the written chain, without caps; N, C: chain ends. Residues, ends and D or L forms follow the SMILES beside them.

Legend:
S. aureus (SA) agr-III = system: S. aureus (SA) agr-III; design: method as in ref (5) (a number printed in a supplementary file, which may have a reference list of its own: not looked up in the article's list); settings: hemolysis; ref (5); cited from earlier work
S. aureus (SA) agr-II = settings: b-lactamase, cited from earlier work
S. aureus (SA) agr-I = settings: b-lactamase, cited from earlier work
[1] = system: S. epidermidis (SE) agr-I; settings: fluorescence, ref (11), cited from earlier work
[2] = system: methicillin resistant S. aureus (MRSA43484); assay type: in vivo, Balb/c female mice
Description: The mouse model was performed under contract at Statens Serum Institut (DK) essentially as previously described ([64]). […] All animal experiments were approved by the National Committee of Animal Ethics, Denmark. Mice were anesthetized, and the hair was removed on a 2 cm^2 skin area on the back, and thereafter, the outermost layer of the skin was scraped off with a dermal curette to obtain a 1 cm^2 superficial skin lesion. For vehicle control and Fucidin treatment, 10 μL inoculum containing approximately 10^7 CFU of methicillin resistant S. aureus (MRSA43484) were spread on the skin lesions. […] This leads to the absolute application of 1 nmol, corresponding to ~10-fold less inhibitory AIP than previously tested in other murine epicutaneous infection models ([12], [13], [15]). After the inoculum had dried, the mice were placed in a cage and kept in a warming cabinet until fully awake. The topical skin treatment with Fucidin was initiated one day after inoculation (days 2, 3, and 4) by spreading 50 μL of Fucidin on the inoculated skin area once a day. Skin lesion size and body weight were measured on days 1, 2, and 4 of all mice. Mice were sacrificed on days 1 (n = 8 vehicle), 2 (n = 4 vehicle, Fucidin, 33), and 4 (n = 4 vehicle, Fucidin, 33), and the infected skin area was cut out and homogenized to determine the CFU count in the skin lesions. Statistical testing was conducted using one-way analysis of variance (ANOVA) with multiple comparisons (Dunnett’s test) and an alpha level of 0.05.

SA AgrC-IV = SA AgrC-IV (Staphylococcus aureus, UniProt Q309Z2); test: β-Lactamase assay, reporter strain RN10829 (P2-agrA:P3-blaZ) with pagrC-IV; assay type: cell-based
Outline: (§1)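 Peptides at 10 μM–10 pM final were tested against 100 nM cognate AIP on early-exponential RN10829 cells that express the relevant AgrC from a plasmid and carry a chromosomal P3-blaZ reporter; incubation 1 h at 37°C. After freezing, β-lactamase was read as nitrocefin conversion at OD486, and IC50 came from non-linear regression of the rates.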

SA AgrC-III = SA AgrC-III (Staphylococcus aureus, UniProt O33590); test: β-Lactamase assay, reporter strain RN10829 (P2-agrA:P3-blaZ) with pagrC-III; assay type: cell-based
Outline: as §1

[3] = target: S. aureus agr-I spa-GFP reporter strain (JE2, MRSA) (Staphylococcus aureus, UniProt A0A0H2XKA3); test: Fluorescence reporter assay for agr deactivation of virulent S. aureus (JE2 spa-GFP); assay type: cell-based; settings: GFP expression relative to non-induced cultures
Description: A fluorescent reporter strain of S. aureus JE2 containing a plasmid with a spa::GFP promoter was constructed by transforming the strain with pALC1741 ([52]). Cultures of the reporter strain were grown from single colonies in TSB medium containing chloramphenicol (CAM, 10 μg/mL) and S. aureus AIP-I (1) (concentrations = 500 nM, 100 nM, or 50 nM) to OD600 = 0.2–0.3 (early exponential phase) at 37°C. Assays were performed in sterile black 96-well plates with clear bottoms. Peptide solutions (15 μL) in 1:5 serial dilutions from DMSO stock solutions (1 mM) in TSB medium were added to the 96-well plate in technical triplicate followed by the induced bacterial cultures (135 μL). Control wells were uninduced cultures containing no S. aureus AIP-I (1). The 96-well plates were incubated in a plate reader at 37°C shaking at 283 rpm and fluorescence (GFP: excitation 479 nm, emission 520 nm, automatic gain), and OD600 values were continuously measured. […] Relative GFP expression was plotted to obtain IC50 values by non-linear regression with variable slope using GraphPad Prism 10.4 software. All assays were performed in biological triplicate.

SA AgrC-II = SA AgrC-II (Staphylococcus aureus, UniProt O33587); test: β-Lactamase assay, reporter strain RN10829 (P2-agrA:P3-blaZ) with pagrC-II; assay type: cell-based
Outline: as §1

S. aureus (SA) agr-IV = system: S. aureus (SA) agr-IV; design: method as in ref (5) (a number printed in a supplementary file, which may have a reference list of its own: not looked up in the article's list); settings: hemolysis; ref (5); cited from earlier work
[4] = system: S. epidermidis (SE) agr-III; settings: fluorescence; at 10 µM; ref (11); cited from earlier work

S. aureus agr-I spa-GFP reporter strain (JE2, MRSA), sequence (A0A0H2XKA3 entry or part of it): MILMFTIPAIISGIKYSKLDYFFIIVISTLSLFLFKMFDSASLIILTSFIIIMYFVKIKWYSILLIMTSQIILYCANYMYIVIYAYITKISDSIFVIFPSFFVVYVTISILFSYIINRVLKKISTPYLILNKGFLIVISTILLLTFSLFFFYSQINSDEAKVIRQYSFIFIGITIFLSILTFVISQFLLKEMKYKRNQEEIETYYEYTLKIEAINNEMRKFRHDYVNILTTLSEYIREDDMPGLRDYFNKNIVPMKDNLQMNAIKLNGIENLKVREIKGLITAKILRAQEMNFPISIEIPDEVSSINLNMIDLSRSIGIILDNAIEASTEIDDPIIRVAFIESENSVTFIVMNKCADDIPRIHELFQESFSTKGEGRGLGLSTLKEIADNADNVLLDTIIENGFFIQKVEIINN
SA AgrC-II, sequence (O33587 entry or part of it): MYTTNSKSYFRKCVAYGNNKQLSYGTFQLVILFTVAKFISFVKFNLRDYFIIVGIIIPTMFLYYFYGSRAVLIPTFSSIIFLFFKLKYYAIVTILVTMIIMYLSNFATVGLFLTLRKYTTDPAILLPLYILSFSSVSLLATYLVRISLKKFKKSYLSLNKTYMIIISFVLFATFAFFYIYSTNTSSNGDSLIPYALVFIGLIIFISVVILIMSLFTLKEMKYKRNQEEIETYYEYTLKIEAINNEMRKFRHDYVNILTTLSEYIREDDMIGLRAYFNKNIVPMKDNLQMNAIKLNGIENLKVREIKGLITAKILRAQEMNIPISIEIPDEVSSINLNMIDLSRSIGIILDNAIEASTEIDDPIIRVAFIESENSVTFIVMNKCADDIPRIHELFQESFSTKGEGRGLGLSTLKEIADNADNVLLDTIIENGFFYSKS
SA AgrC-IV, sequence (Q309Z2 entry or part of it): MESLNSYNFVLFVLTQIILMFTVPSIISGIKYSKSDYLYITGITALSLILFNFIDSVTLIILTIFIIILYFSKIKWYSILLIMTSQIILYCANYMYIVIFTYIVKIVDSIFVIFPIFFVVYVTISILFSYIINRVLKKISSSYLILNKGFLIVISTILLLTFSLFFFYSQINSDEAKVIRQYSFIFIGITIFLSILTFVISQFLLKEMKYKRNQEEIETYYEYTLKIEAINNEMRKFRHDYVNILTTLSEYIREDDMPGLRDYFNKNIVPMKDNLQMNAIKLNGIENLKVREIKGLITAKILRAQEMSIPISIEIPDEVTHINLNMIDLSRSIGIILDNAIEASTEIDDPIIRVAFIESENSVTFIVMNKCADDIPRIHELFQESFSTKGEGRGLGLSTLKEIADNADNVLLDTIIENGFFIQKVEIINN
SA AgrC-III, sequence (O33590 entry or part of it): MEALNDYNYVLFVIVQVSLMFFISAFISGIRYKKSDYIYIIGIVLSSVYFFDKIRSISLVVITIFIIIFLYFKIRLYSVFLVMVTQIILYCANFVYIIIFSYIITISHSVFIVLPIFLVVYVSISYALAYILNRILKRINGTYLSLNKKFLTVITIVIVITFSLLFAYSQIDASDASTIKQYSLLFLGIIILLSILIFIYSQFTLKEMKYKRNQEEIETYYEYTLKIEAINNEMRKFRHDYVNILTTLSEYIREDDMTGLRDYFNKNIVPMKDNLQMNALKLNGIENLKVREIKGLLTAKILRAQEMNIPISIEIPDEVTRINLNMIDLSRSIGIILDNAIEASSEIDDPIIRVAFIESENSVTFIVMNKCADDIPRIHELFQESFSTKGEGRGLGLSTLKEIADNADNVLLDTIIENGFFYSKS

CC[C@H](C)[C@@H]1NC(=O)[C@H](Cc2ccccc2)NC(=O)[C@H](CC(=O)O)NC(=O)[C@@H](NC(=O)[C@@H](NC(=O)[C@H](CO)NC(=O)[C@@H](N)Cc2ccc(O)cc2)[C@@H](C)O)CSC(=O)[C@H](CCSC)NC1=O [compound 1, S. aureus AIP-I] (H-YSTCDFIM; thioester 4-C)
IC50 (S. aureus (SA) agr-III): 0.00612 µM
IC50 (S. aureus (SA) agr-II; ref (2)): 0.0034 ± 0.0012 µM
IC50 (S. aureus (SA) agr-II; ref (4)): 0.025 µM
EC50 (S. aureus (SA) agr-I; ref (3)): 0.04 µM and 0.023 µM
EC50 (S. aureus (SA) agr-I; ref (4)): 0.028 µM
EC50 (S. aureus (SA) agr-I; ref (6)): 0.011 µM
EC50 (S. aureus (SA) agr-I; ref (7)): 0.00321 µM
inhibition at 1000 nM, SE agr-I ([1]; at 1000 nM): no inhibition

NCCCC[C@H](N)C(=O)N[C@@H](Cc1ccc(O)cc1)C(=O)N[C@@H](Cc1ccc(O)cc1)C(=O)N1CCC[C@H]1C(=O)N[C@H]1CSC(=O)[C@H](Cc2ccccc2)NC(=O)[C@H](Cc2ccc(O)cc2)NC(=O)CNC(=O)[C@H](Cc2c[nH]c3ccccc23)NC1=O [compound 33, S. simulans AIP-II] (H-KYYPCWGYF; thioester 5-C)
skin lesion size compared with the vehicle control after 48 h ([2]; 33: 100 μM in MRSA inoculum (10^7 CFU), single, Fucidin daily, P = 0.0174 (33), P = 0.0108 (fusidic acid)): significant reduction
skin lesion size compared with the vehicle control after 96 h ([2]; 33: 100 μM in MRSA inoculum (10^7 CFU), single, Fucidin daily, P = 0.0249 (33), P = 0.0202 (fusidic acid)): significant reduction
decrease in bacterial load compared with vehicle control after 4 days ([2]; 33: 100 μM single (P = 0.009), fusidic acid daily (P = 0.0168)): ~ 60 fold
IC50 (SA AgrC-IV): 0.273 ± 0.026 µM
IC50 (SA AgrC-III): 0.198 ± 0.033 µM
IC50 ([3]; induced with 1 [50 nM]): 0.0033 µM
IC50 ([3]; induced with 1 [100 nM]): 0.0052 µM
IC50 ([3]; induced with 1 [500 nM]): 0.0184 µM
IC50 (SA AgrC-II): 0.08 ± 0.007 µM

NCCCC[C@H](N)C(=O)N[C@@H](Cc1ccc(O)cc1)C(=O)N[C@@H](CC(N)=O)C(=O)N1CCC[C@H]1C(=O)N[C@H]1CSC(=O)[C@H](Cc2ccccc2)NC(=O)[C@H](Cc2ccc(O)cc2)NC(=O)CNC(=O)[C@H](Cc2c[nH]c3ccccc23)NC1=O [compound 34, S. simulans AIP-III] (H-KYNPCWGYF; thioester 5-C)
IC50 (SA AgrC-IV): 0.351 ± 0.06 µM
IC50 (SA AgrC-III): 0.103 ± 0.005 µM
IC50 (SA AgrC-II): 0.06 ± 0.007 µM

S. aureus AIP-III D4A [compound 57, reference compound]
IC50 (S. aureus (SA) agr-IV): 0.00011 µM
IC50 (S. aureus (SA) agr-III): 0.00016 µM
IC50 (S. aureus (SA) agr-I; ref (8)): 0.00016 ± 1e-05 µM
inhibition at 10 µM, SE agr-I ([1]; at 10 µM): ~ 25%
inhibition at 10 µM, SE agr-III [4]: ~ 25%
